Assay results published in patent US9951065B2 (Gilead Sciences, Inc., priority 2015, dated 2018).
pEC50: −log10 of the molar value.

Target: T1, IDO1 (Homo sapiens, UniProt P14902)
T1 construct: HeLa cells were treated with a test compound in the presence of IFNγ, which induces IDO1 expression; host or cells: H1-HeLa cells, IDO1 induced with IFNγ
Assay: Cell-based (HeLa) assay for measurement of IDO1 inhibition (kynurenine levels in supernatant after IFNγ induction)
Settings: HeLa cells, geometric mean of a minimum of four determinations
Experimental: Example 509. Cell-Based (HeLa) Assay for Measurement of IDOL Inhibition
To measure IDO1 inhibition in tissue culture, HeLa cells were treated with a test compound in the presence of IFNγ, which induces IDO1 expression. Following incubation, cell supernatants were assayed for kynurenine levels, an indicator of IDO1 activity.
H1-HeLa cells (ATCC #CRL-1958) were seeded in 384-well plates (Greiner #82051-282) at a volume of 50 μL/well in DMEM (Corning #15-018-CM) supplemented with 10% FBS (Corning #35-011-CV) and 1% P/S/G (Corning #30-009-CL) at a density of 1,250 cells/well and incubated overnight at 37° C., 5% CO2/100% humidity. The following day, the test compounds were added in DMSO (0.5% final) at various concentrations, and IDO1 was inducibly expressed by the addition of 50 uL/well of […] of INFγ (Peprotech #300-02) in cell plating media. As a […] control, 50 uL of the cell plating media without IFNγ was added to several wells. Following a 48 hour incubation, the plates were spun down at 1,200 RPM for 5 min at 10° C. 65 μL/well of the supernatant was then transferred to new 384-well plates (Thermo #262160) that contained 10 uL/well of 30% TCA (Sigma #TO699), and the plates were sealed and incubated at 60° C. for 30 min. The plates were then centrifuged for 15 min at 2,000 RPM at 10° C. 40 μL/well of the supernatant was transferred to new 384-well plates (Thermo #262160) and was reacted with 40 μL/well of 2% (w/v) p-dimethlyaminobenzaldehyde (Sigma #156417) in glacial acetic acid (Sigma #A6283). The reaction was incubated at room temperature for 10 min and absorbance at 480 nm was read using a PerkinElmer Envision plate reader.
Data in Table 1 were normalized based on positive (−IFNγ) and negative (+IFNγ) controls and EC50 values were calculated from the fit of the dose response curves to a four-parameter equation. All EC50 values represent geometric mean values of a minimum of four determinations. These assays generally produced results within 2-fold of the reported mean.

[1] = IFNγ-induced IDO1, kynurenine in supernatant, 48 hour incubation
[2] = IFNγ-induced IDO1, kynurenine in supernatant after 48 hour incubation

T1 sequence (P14902 whole entry): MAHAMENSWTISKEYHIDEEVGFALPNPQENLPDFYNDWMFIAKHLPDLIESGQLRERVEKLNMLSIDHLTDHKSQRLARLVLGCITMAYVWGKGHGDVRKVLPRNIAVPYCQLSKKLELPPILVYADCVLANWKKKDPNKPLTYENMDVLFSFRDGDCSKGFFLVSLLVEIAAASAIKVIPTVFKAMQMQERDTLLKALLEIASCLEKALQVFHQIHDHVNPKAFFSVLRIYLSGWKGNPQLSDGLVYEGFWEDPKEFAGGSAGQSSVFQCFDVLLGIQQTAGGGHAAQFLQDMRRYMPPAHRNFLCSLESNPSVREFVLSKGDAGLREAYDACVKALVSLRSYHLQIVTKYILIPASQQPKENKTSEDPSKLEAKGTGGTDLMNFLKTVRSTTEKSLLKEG

SMILES	pEC50 [1]	pEC50 [2]
CN(C)C1(CNc2nc3c(F)c(F)cc(/C(=N/O)Nc4ccc(F)c(Cl)c4)c3[nH]2)CCC1 [Example 441, N-(3-chloro-4-fluorophenyl)-2-(((1-(dimethylamino)cyclobutyl)methyl)amino)-4,5-difluoro-N′-hydroxy-1H-benzo[d]imidazole-7-carboximidamide]	< 5.00	–
O/N=C(\Nc1ccc(F)c(Cl)c1)c1cccc2nc[nH]c12 [Example 8, N-(3-Chloro-4-fluorophenyl)-N′-hydroxy-1H-benzo[d]imidazole-7-carboximidamide]	–	5.75
O/N=C(\Nc1ccc(F)c(Cl)c1)c1ccnc2nc[nH]c12 [Example 59, N-(3-Chloro-4-fluorophenyl)-N′-hydroxy-1H-imidazo[4,5-b]pyridine-7-carboximidamide]	–	6.68
CC1CN(CCNc2nc3nccc(/C(=N/O)Nc4ccc(F)c(Cl)c4)c3[nH]2)C(C)CO1 (stereo not shown) [Example 485, N-(3-chloro-4-fluorophenyl)-2-((2-(2,5-dimethylmorpholino)ethyl)amino)-N′-hydroxy-1H-imidazo[4,5-b]pyridine-7-carboximidamide]	6.19	–
O/N=C(\Nc1ccc(F)c(Cl)c1)c1ccnc2nc(-c3cccs3)[nH]c12 [Example 146, N-(3-Chloro-4-fluorophenyl)-N′-hydroxy-2-(thiophen-2-yl)-1H-imidazo[4,5-b]pyridine-7-carboximidamide]	–	5.38
ON=C(Nc1ccc(F)c(Cl)c1)c1ccnc2nc(NCCN3CCC(F)(F)CC3)[nH]c12 [Example 214, N-(3-chloro-4-fluorophenyl)-2-((2-(4,4-difluoropiperidin-1-yl)ethyl)amino)-N′-hydroxy-1H-imidazo[4,5-b]pyridine-7-carboximidamide]	–	5.72
CS(=O)(=O)NCCc1nc2nccc(/C(=N/O)Nc3ccc(F)c(Cl)c3)c2[nH]1 [Example 266, N-(3-chloro-4-fluorophenyl)-N′-hydroxy-2-(2-(methylsulfonamido)ethyl)-1H-imidazo[4,5-b]pyridine-7-carboximidamide]	–	< 5.00
CCNCCc1nc2nccc(/C(=N/O)Nc3ccc(F)c(Cl)c3)c2[nH]1 [Example 204, N-(3-chloro-4-fluorophenyl)-2-(2-(ethylamino)ethyl)-N′-hydroxy-3H-imidazo[4,5-b]pyridine-7-carboximidamide]	–	5.66
NCCNc1nc2c(F)c(F)cc(/C(=N/O)Nc3ccc(F)c(Cl)c3)c2[nH]1 [Example 333, 2-((2-aminoethyl)amino)-N-(3-chloro-4-fluorophenyl)-4,5-difluoro-N′-hydroxy-1H-benzo[d]imidazole-7-carboximidamide]	5.86	–
CN1CCCCC(Nc2nc3c(F)c(F)cc(/C(=N/O)Nc4ccc(F)c(Cl)c4)c3[nH]2)C1 (stereo not shown) [Example 451, N-(3-chloro-4-fluorophenyl)-4,5-difluoro-N′-hydroxy-2-((1-methylazepan-3-yl)amino)-1H-benzo[d]imidazole-7-carboximidamide]	6.69	–
O/N=C(\Nc1ccc(F)c(Cl)c1F)c1ccnc2nc[nH]c12 [Example 64, N-(3-Chloro-2,4-difluorophenyl)-N′-hydroxy-1H-imidazo[4,5-b]pyridine-7-carboximidamide]	–	6.09
Nc1nc2cc(F)cc(/C(=N/O)Nc3ccc(F)c(Br)c3)c2[nH]1 [Example 373, 2-amino-N-(3-bromo-4-fluorophenyl)-5-fluoro-N′-hydroxy-1H-benzo[d]imidazole-7-carboximidamide]	6.13	–
CC(C)NCc1nc2c(F)ccc(/C(=N/O)Nc3ccc(F)c(Cl)c3)c2[nH]1 [Example 289, N-(3-chloro-4-fluorophenyl)-4-fluoro-N′-hydroxy-2-((isopropylamino)methyl)-1H-benzo[d]imidazole-7-carboximidamide]	–	5.65
O/N=C(\Nc1ccc(F)c(Cl)c1)c1ccnc2nc(NCCNC3CC3)[nH]c12 [Example 402, N-(3-chloro-4-fluorophenyl)-2-((2-(cyclopropylamino)ethyl)amino)-N′-hydroxy-1H-imidazo[4,5-b]pyridine-7-carboximidamide]	6.25	–
O/N=C(\Nc1ccc(F)c(Cl)c1)c1ccnc2nc(CCN3CCCC3)[nH]c12 [Example 193, N-(3-Chloro-4-fluorophenyl)-N′-hydroxy-2-(2-(pyrrolidin-1-yl)ethyl)-1H-imidazo[4,5-b]pyridine-7-carboximidamide]	–	6.45
O/N=C(\Nc1cccc2ccoc12)c1ccnc2nc[nH]c12 [Example 69, N-(Benzofuran-7-yl)-N′-hydroxy-1H-imidazo[4,5-b]pyridine-7-carboximidamide]	–	5.87
CCN(CC)CCc1nc2c(F)c(F)cc(/C(=N/O)Nc3ccc(F)c(Cl)c3)c2[nH]1 [Example 58, N-(3-Chloro-4-fluorophenyl)-2-(2-(diethylamino)ethyl)-4,5-difluoro-N′-hydroxy-1H-benzo[d]imidazole-7-carboximidamide]	–	6.10
CN(CCc1nc2nccc(/C(=N/O)Nc3ccc(F)c(Cl)c3)c2[nH]1)Cc1ccccc1 [Example 396, 2-(2-(benzyl(methyl)amino)ethyl)-N-(3-chloro-4-fluorophenyl)-N′-hydroxy-1H-imidazo[4,5-b]pyridine-7-carboximidamide]	6.10	–
O/N=C(\Nc1ccc(F)c(Cl)c1)c1cc(F)c(F)c2nc(NCCCN3CCOCC3)[nH]c12 [Example 433, N-(3-chloro-4-fluorophenyl)-4,5-difluoro-N′-hydroxy-2-((3-morpholinopropyl)amino)-1H-benzo[d]imidazole-7-carboximidamide]	6.05	–
O/N=C(\Nc1ccc(Br)cc1)c1ccnc2nc[nH]c12 [Example 88, N-(4-Bromophenyl)-N′-hydroxy-1H-imidazo[4,5-b]pyridine-7-carboximidamide]	–	6.04
O/N=C(\Nc1ccc(F)c(Cl)c1)c1ccnc2nc(CCN3CC[C@@H](O)C3)[nH]c12 [Example 260, (R)—N-(3-chloro-4-fluorophenyl)-N′-hydroxy-2-(2-(3-hydroxypyrrolidin-1-yl)ethyl)-1H-imidazo[4,5-b]pyridine-7-carboximidamide]	–	5.49
CNc1nc2nccc(/C(=N/O)Nc3cccc(Cl)c3)c2[nH]1 [Example 166, N-(3-Chlorophenyl)-N′-hydroxy-2-(methylamino)-1H-imidazo[4,5-b]pyridine-7-carboximidamide]	–	6.42
CN1CCOCC1CNc1nc2nccc(/C(=N/O)Nc3ccc(F)c(Cl)c3)c2[nH]1 (stereo not shown) [Example 282, N-(3-chloro-4-fluorophenyl)-N′-hydroxy-2-(((4-methylmorpholin-3-yl)methyl)amino)-1H-imidazo[4,5-b]pyridine-7-carboximidamide]	–	< 5.00
O/N=C(\Nc1cccc(Br)c1)c1ccnc2nc(CCN3CCCC3)[nH]c12 [Example 269, N-(3-bromophenyl)-N′-hydroxy-2-(2-(pyrrolidin-1-yl)ethyl)-1H-imidazo[4,5-b]pyridine-7-carboximidamide]	–	6.01
COC1CN(CCNc2nc3c(F)c(F)cc(/C(=N/O)Nc4ccc(F)c(Cl)c4)c3[nH]2)C1 [Example 456, N-(3-chloro-4-fluorophenyl)-4,5-difluoro-N′-hydroxy-2-((2-(3-methoxyazetidin-1-yl)ethyl)amino)-1H-benzo[d]imidazole-7-carboximidamide]	6.56	–
